# Measurements from US20260365684A1, “PHYTOSPHINGOSINE-3,4-CYCLICPHOSPHATE COMPOUND AND PHARMACEUTICAL COMPOSITION COMPRISING THE SAME” (AXCESO BIOPHARMA CO., LTD., priority 2022, published 2026).
# Key:
# SIRT1 [1] = experiment: SIRT1 expression in HUVECs by western blot; format: cell-based, human
# Experimental: To determine the increase in SIRT1 expression by the compound of formula (1a-1) prepared in Example 1 above in human umbilical vein endothelial cells (HUVECs), HUVECs were seeded at 5×10^5/4 ml in a 60 mm cell culture dish using ECBM2 medium (Promocell) and stabilized for 12 hours in an incubator maintained at 37 °C and 5% CO2, respectively.
# The cells were then treated with 10 nM, 100 nM and 1000 nM of the compound of formula (1a-1) prepared in Example 1 above, respectively, and incubated for another 24 hours, and then SIRT1 expression was determined by western blot.
# SIRT1 [2] = experiment: SIRT1 expression in mouse vascular cells; format: cell-based
# Tau protein = experiment: Expression of Tau in brain of AD-induced animal model by fluorescence microscopy; format: in vivo; settings: mouse brain, 1 mg/kg i.p. once every 3 days for 2 weeks, FIG. 3
# Experimental: To determine the therapeutic effect on Alzheimer's Disease (AD), the effects on amyloid beta monomer (monomeric Aβ, mAβ) and Tau protein, which are biomarkers of AD, were analyzed in an AD-induced animal model.
# APP/PS/Tau transgenic mice were used as an AD-induced animal model. The compound of formula (1a-1) was administered intraperitoneally once every 3 days at a concentration of 1 mg/kg to 12-week-old transgenic mice for 2 weeks, and the expression of mAβ and Tau proteins in the mouse brain was measured after 1 and 4 weeks. After anesthetizing the mouse, the cervical region was incised with a dissecting tool, and then the occipital region was incised to remove both sides of the skull. The brain was washed with phosphate buffered saline (PBS) and fixed with 4% paraformaldehyde (Sigma, St Louis, MO, USA) for 12 hours at 4 °C. These were cut to a thickness of approximately 10 μm using a vibratome, and hippocampus and cortex sections were collected and placed in 24 wells. PBS was added to the wells containing the fixed tissue sections, and fluorescent nanoparticles (QD565, red fluorescence) conjugated with anti-amyloid antibodies and anti-Tau antibodies (Santa Cruz, USA) were added to each 2 μM, and reacted at 4 °C for 12 hours. The expression of mAβ and Tau was confirmed by fluorescence microscopy.
# SH-SY5Y cell lines = experiment: Proliferation of neurons (SH-SY5Y, Parkinson's disease cell model), EZ-cytox; format: cell-based, human; settings: 5 days, FIG. 4
# Experimental: A medium containing DMEM/F12 (Hyclone), 10% FBS (Hyclone), and 1% penicillin-streptomycin (Hyclone) was used, and the medium was replaced every two days after seeding on a T75 plate. Subculture was performed when the cell density was 80-90%.
# Then, to determine the neuronal proliferation effect, the subcultured SH-SY5Y cells were seeded in 96 wells at 5×10^3 cells/well. After 1 day, the medium was replaced with a 5% FBS ratio, and the cells were treated with the compound of formula (1a-1) at concentrations serially diluted 2-fold from 500 nM to 15.6 nM and cultured for 5 days. The medium was replaced with 10% FBS containing the drug every other day. The culture medium with 10% FBS was used as a control. After 5 days, the amount of living cells was measured at 450 nm absorbance using EZ-cytox (DoGen) to compare the cell viability.
# lungs of mice = experiment: Acute respiratory distress syndrome induced by CLP: lung histology, lung injury score, wet-to-dry weight ratio; format: in vivo, mouse; settings: treated at 6 and 16 hours after CLP, lungs harvested at 18 hours
# Experimental: CLP induces pulmonary edema due to increased inflammation and disruption of the vascular barrier, resulting in acute respiratory distress syndrome (ARDS). To determine the effect on ARDS, the compound of formula (1a-1) was treated at 6 and 16 hours after CLP treatment in the same manner as in Experimental Example 7 above, the lungs of mice were harvested at 18 hours for histological analysis, and the wet-to-dry weight ratio of the lungs was obtained. For comparison, mice without CLP treatment served as a control group.
# For histologic analysis, the harvested lungs were fixed in 10% paraformaldehyde, infiltrated with paraffin, sectioned into 5 μm-thick tissues, and then de-paraffinized with xylene. Sectioned tissues were mounted on slides, stained with H&E, and observed under an optical microscope. In addition, the lung tissue damage was evaluated by histological score to obtain the lung injury score (LIS) for each group.
# To calculate the wet-to-dry weight ratio, lung organs were harvested 18 hours after CLP treatment, and the wet weight was measured immediately after harvesting, and the dry weight was measured after drying in an oven at 60 °C for 48 hours to calculate the wet-to-dry weight ratio. The wet-to-dry weight ratio is used as an indicator of organ edema formation.
# TNF-α = TNF-α in serum after CLP treatment by ELISA; format: in vivo, mouse; settings: serum at 18 hours, treated at 6 and 16 hours after CLP; FIG. 10
# Experimental: After CLP treatment, the inflammatory cytokines TNF-α and IL-6 were analyzed by ELISA.
# Specifically, after treating the compound of formula (1a-1) at 6 and 16 hours after CLP treatment, mouse blood was collected at 18 hours and allowed to stand at room temperature for 1 hour, then centrifuged at 3000 rpm for 10 minutes to obtain serum to analyze the amount of TNF-α and IL-6.
# mouse organs = experiment: In vivo permeability of mouse organs after CLP (Evans blue dye); settings: treated at 6 and 16 hours after CLP, EBD i.v. at 18 hours; FIG. 11C
# Experimental: Permeability was measured by an in vitro method using cell culture and in vivo method using Evans blue dye. To increase permeability, LPS was used in the in vitro method and CLP treatment was used in the in vivo method.
# To measure permeability by an in vivo method, the compound of formula (1a-1) was treated at 6 and 16 hours after CLP treatment in the same manner as in Experimental Example 7 above, and 200 μl of a 0.5% Evans blue dye (EBD) solution was administered intravenously at 18 hours, circulated for 1 hour, and organs were harvested to visually confirm the presence of dye. The organs were then homogenized in a homogenizer to extract the dye at 55 °C for 48 hours, and permeability was determined by measuring absorbance at 620 nm.
smiles,measurement,setting,value
"CCCCCCCCCCCCCC[C@H]1OP(=O)(O)O[C@H]1[C@@H](N)CO.Cl [formula (1a-1), (4S,5R)-4-((S)-1-amino-2-hydroxyethyl)-2-hydroxy-5-tetradecyl-1,3,2-dioxaphosphoran-2-oxide hydrochloride]",concentration increasing SIRT1 expression relative to that of resveratrol,SIRT1 [1]; HUVEC EC50 about 10 nM vs known EC50 of resveratrol approximately […] μM,thousands of times lower than that of resveratrol
same,increase in SIRT1 expression,"SIRT1 [1]; HUVECs, 10 nM, 100 nM and 1000 nM, 24 hours, FIG. 1",increases the expression of SIRT1 even at a very low concentration of 10 nM
same,EC50,"SIRT1 [1]; Homo sapiens, HUVEC, HUVECs, 24 hours, western blot, read-out: concentration (EC50) that increased the expression of SIRT1 by 50%",~10 nM
same,concentration of maximum SIRT1 expression,SIRT1 [2],100 ng/mL
same,red fluorescence for Tau,Tau protein; 1 week and 4 weeks after,negligible red fluorescence for mAβ and Tau
same,expression of Tau protein,Tau protein,significantly reduced
same,proliferation of nerve cells,SH-SY5Y cell lines; 15.6 nM to 500 nM,proliferation of nerve cells increases with increasing concentrations
same,concentration of maximum proliferative potency,SH-SY5Y cell lines,~100 nM
same,"lung tissue damage (histology, H&E)",lungs of mice; FIG. 9A,the lung tissue is almost restored to normal
same,lung injury score (LIS),lungs of mice; FIG. 9B,almost restores the lung injury score to normal
same,wet-to-dry weight ratio of the lung,lungs of mice; FIG. 9C,restores the wet-to-dry weight ratio of the lung to normal
same,amount of TNF-α,TNF-α,significantly decreased
same,amount of Evans blue dye (EBD) in each organ,mouse organs,returns to normal
